From ChEMBL document CHEMBL4270553, “Synthesis and anticancer activity of new dihydropyrimidinone derivatives” (Eur J Med Chem, 2018)

Experiments:
Type in all cases: functional
K562 = assay: Antiproliferative activity against human K562 cells assessed as growth inhibition at 10 uM after 48 hrs by sulforhodamine B assay relative to control; conditions: K562, 48 h, read-out: GI
NCI-H322M = assay: Antiproliferative activity against human NCI-H322M cells assessed as growth inhibition at 10 uM after 48 hrs by sulforhodamine B assay relative to control; conditions: read-out: GI
LOX IMVI = assay: Antiproliferative activity against human LOXIMVI cells assessed as growth inhibition at 10 uM after 48 hrs by sulforhodamine B assay relative to control; conditions: read-out: GI
SR = assay: Antiproliferative activity against human SR cells assessed as growth inhibition at 10 uM after 48 hrs by sulforhodamine B assay relative to control; conditions: read-out: GI
NCI/ADR-RES = assay: Antiproliferative activity against human NCI/ADR-RES cells assessed as growth inhibition at 10 uM after 48 hrs by sulforhodamine B assay relative to control; conditions: read-out: GI
MDA-MB-468 = assay: Antiproliferative activity against human MDA-MB-468 cells assessed as growth inhibition at 10 uM after 48 hrs by sulforhodamine B assay relative to control; conditions: MDA-MB-468, 48 h, read-out: GI
PC-3 = assay: Antiproliferative activity against human PC3 cells assessed as growth inhibition at 10 uM after 48 hrs by sulforhodamine B assay relative to control; conditions: PC-3, 48 h, read-out: GI
CAKI-1 = assay: Antiproliferative activity against human Caki1 cells assessed as growth inhibition at 10 uM after 48 hrs by sulforhodamine B assay relative to control; conditions: CAKI-1, 48 h, read-out: GI
A549 = assay: Antiproliferative activity against human A549/ATCC cells assessed as growth inhibition at 10 uM after 48 hrs by sulforhodamine B assay relative to control; conditions: A549, 48 h, read-out: GI
HL-60(TB) = assay: Antiproliferative activity against human HL-60(TB) cells assessed as growth inhibition at 10 uM after 48 hrs by sulforhodamine B assay relative to control; conditions: HL-60, 48 h, read-out: GI
NCI-H522 = assay: Antiproliferative activity against human NCI-H522 cells assessed as growth inhibition at 10 uM after 48 hrs by sulforhodamine B assay relative to control; conditions: NCI-H522, 48 h, read-out: GI
T47D = assay: Antiproliferative activity against human T47D cells assessed as growth inhibition at 10 uM after 48 hrs by sulforhodamine B assay relative to control; conditions: read-out: GI
UACC-62 = assay: Antiproliferative activity against human UACC62 cells assessed as growth inhibition at 10 uM after 48 hrs by sulforhodamine B assay relative to control; conditions: UACC-62, 48 h, read-out: GI
HCT-15 = assay: Antiproliferative activity against human HCT15 cells assessed as growth inhibition at 10 uM after 48 hrs by sulforhodamine B assay relative to control; conditions: HCT-15, 48 h, read-out: GI
HCT-116 = assay: Antiproliferative activity against human HCT116 cells assessed as growth inhibition at 10 uM after 48 hrs by sulforhodamine B assay relative to control; conditions: HCT-116, 48 h, read-out: GI
UO-31 = assay: Antiproliferative activity against human UO31 cells assessed as growth inhibition at 10 uM after 48 hrs by sulforhodamine B assay relative to control; conditions: UO-31, 48 h, read-out: GI
MCF7 = assay: Antiproliferative activity against human MCF7 cells assessed as growth inhibition at 10 uM after 48 hrs by sulforhodamine B assay relative to control; conditions: MCF7, 48 h, read-out: GI
NCI-H460 = assay: Antiproliferative activity against human NCI-H460 cells assessed as growth inhibition at 10 uM after 48 hrs by sulforhodamine B assay relative to control; conditions: NCI-H460, 48 h, read-out: GI
OVCAR-4 = assay: Antiproliferative activity against human OVCAR4 cells assessed as growth inhibition at 10 uM after 48 hrs by sulforhodamine B assay relative to control; conditions: OVCAR-4, 48 h, read-out: GI
SF-295 = assay: Antiproliferative activity against human SF295 cells assessed as growth inhibition at 10 uM after 48 hrs by sulforhodamine B assay relative to control; conditions: SF-295, 48 h, read-out: GI
ACHN = assay: Antiproliferative activity against human ACHN cells assessed as growth inhibition at 10 uM after 48 hrs by sulforhodamine B assay relative to control; conditions: read-out: GI
SK-MEL-5 = assay: Antiproliferative activity against human SK-MEL-5 cells assessed as growth inhibition at 10 uM after 48 hrs by sulforhodamine B assay relative to control; conditions: SK-MEL-5, 48 h, read-out: GI
MOLT-4 = assay: Antiproliferative activity against human MOLT4 cells assessed as growth inhibition at 10 uM after 48 hrs by sulforhodamine B assay relative to control; conditions: MOLT-4, 48 h, read-out: GI

| Structure (SMILES) | inhibition of growth at 10 µM (K562) | inhibition of growth at 10 µM (NCI-H322M) | inhibition of growth at 10 µM (LOX IMVI) | inhibition of growth at 10 µM (SR) | inhibition of growth at 10 µM (NCI/ADR-RES) | inhibition of growth at 10 µM (MDA-MB-468) | inhibition of growth at 10 µM (CAKI-1) | inhibition of growth at 10 µM (HL-60(TB)) | inhibition of growth at 10 µM (NCI-H522) | inhibition of growth at 10 µM (T47D) | inhibition of growth at 10 µM (UACC-62) | inhibition of growth at 10 µM (HCT-15) | inhibition of growth at 10 µM (HCT-116) | inhibition of growth at 10 µM (UO-31) | inhibition of growth at 10 µM (MCF7) | inhibition of growth at 10 µM (OVCAR-4) | inhibition of growth at 10 µM (SF-295) | inhibition of growth at 10 µM (ACHN) | inhibition of growth at 10 µM (SK-MEL-5) | inhibition of growth at 10 µM (MOLT-4) | also measured |
| --- | --- | --- | --- | --- | --- | --- | --- | --- | --- | --- | --- | --- | --- | --- | --- | --- | --- | --- | --- | --- | --- |
| CCOC(=O)C1=C(CSC(=S)N2CCCCC2)N(C)C(=O)NC1c1ccccc1 (stereo not drawn) | 20% | 15% | 11% | 27% | 12% | 20% | 17% | 33% | 25% | 45% | 28% | 35% | 34% | 29% | 12% | 16% | 13% | 15% | 25% | 30% | inhibition of growth at 10 µM (PC-3): 27%; inhibition of growth at 10 µM (A549): 29%; inhibition of growth at 10 µM (NCI-H460): 10% |
| CCOC(=O)C1=C(CSC(=S)N2CCN(c3ccc(OC)cc3)CC2)N(C)C(=O)NC1c1ccccc1 (stereo not drawn) | 47% | 17% | 33% | 63% | 13% | 21% | 26% | 32% | 37% | 59% | 42% | 60% | 57% | 55% | 30% | 29% | 15% | 21% | 51% | 49% | inhibition of growth at 10 µM (PC-3): 53%; inhibition of growth at 10 µM (A549): 33%; inhibition of growth at 10 µM (NCI-H460): 39% |
| CCOC(=O)C1=C(CSc2nc3ccccc3[nH]2)N(C)C(=O)NC1c1ccccc1 (stereo not drawn) | 10% | 12% | 11% | 1% | 6% | 1% | 2% | 6% | 3% | – | 11% | 7% | 6% | 4% | 14% | – | 7% | 2% | – | 14% | inhibition of growth at 10 µM (PC-3): 8% |
| CCOC(=O)C1=C(CSc2nnnn2-c2ccccc2)N(C)C(=O)NC1c1ccccc1 (stereo not drawn) | 17% | 18% | 14% | 13% | 14% | 3% | 14% | 7% | 14% | 17% | 17% | 8% | 12% | 21% | 15% | 4% | 11% | 3% | 2% | 26% | – |
| CCOC(=O)C1=C(CSc2nnc(-c3ccccc3)o2)N(C)C(=O)NC1c1ccccc1 (stereo not drawn) | 34% | 15% | 27% | 16% | 15% | 17% | 14% | 11% | 16% | 25% | 10% | 15% | 19% | 34% | 11% | 14% | 14% | 3% | 10% | 29% | inhibition of growth at 10 µM (PC-3): 20%; inhibition of growth at 10 µM (A549): 5% |
| CCOC(=O)C1=C(CSC2=NCCS2)N(C)C(=O)NC1c1ccccc1 (stereo not drawn) | 24% | 27% | 16% | 40% | 15% | 11% | 24% | 10% | 19% | 37% | 27% | 28% | 10% | 21% | 19% | 16% | 10% | 17% | 4% | 19% | inhibition of growth at 10 µM (A549): 16%; inhibition of growth at 10 µM (NCI-H460): 2% |
| CCOC(=O)C1=C(Cn2cc(CO)nn2)N(C)C(=O)NC1c1ccccc1 (stereo not drawn) | 10% | 9% | 7% | 2% | 4% | – | 8% | 2% | 5% | 1% | – | 6% | 5% | 7% | 12% | 3% | 4% | 2% | – | 11% | – |
| CCOC(=O)C1=C(CN2CCCC2)N(C)C(=O)NC1c1ccccc1 (stereo not drawn) | 1% | 9% | 8% | 10% | 3% | – | 9% | – | 4% | 1% | – | 6% | 2% | 8% | 13% | – | 9% | – | – | 4% | – |
| CCOC(=O)C1=C(CSC(=S)N2CCOCC2)N(C)C(=O)NC1c1ccccc1 (stereo not drawn) | 83% | 18% | 12% | 12% | 6% | 6% | – | 4% | 7% | 18% | 16% | 7% | 6% | 9% | 14% | – | 9% | 7% | 1% | 5% | inhibition of growth at 10 µM (A549): 4% |
